Values quoted from earlier work, collected in US8282955B2, “Method for the preparation of a pharmaceutical composition comprising 5-aminosalicylic acid for use in treatment of ulcerative colitis and Crohn's disease” (Ferring B.V., priority 2001, dated 2012).

Conditions: moisture and light

Compound: Nc1ccc(O)c(C(=O)O)c1 [Batch 5-ASA, 5-aminosalicylic acid]
- Stability: poor stability
